Experimental data: patent US10493164B2, “Method for preventing and treating adhesions” (Joint Stock Company “Pharmasyntez”, priority 2011, dated 2019)

Test system: Adhesions in the peritoneal cavity
Assay: Adhesions in the peritoneal cavity generated in rats by caecum injury and abdominal wall scarification
Format: in vivo, Wistar rats
Protocol: (§1) Adhesions in the peritoneal cavity were generated in laboratory animals (Wistar rats, 9 months of age, weight of 220-250 g) by injuring the surface of caecum and abdominal wall scarification in the injured area. The study was conducted in compliance with the principles of the European Convention for the Protection of Vertebrate Animals used for Experimental and other Scientific Purposes (Strasbourg, France, 1986), as well as with regulations for humane treatment specified in Guidance for Proper Conduct of Animal Experiments (Attachment to Order No. 755 of the Ministry of Health of the USSR, dated Aug. 12, 1977).
Ten laboratory animals were used in this study. They were divided into 2 groups: the experimental group and the control group.
The calculation was based on the minimum volume of solution required to moisten the peritoneal surface (diZerega G. S. Peritoneum, peritoneal healing and adhesion formation/G. S. diZerega//in: Perotoneal surgery: Ed. G. S. diZerega.—Berlin—Heidelberg—New York: Springer, 2006.—P. 3-38), and the concentration was calculated on the basis of IC50 in the boundary layer of cells. The control animals received a corresponding amount of normal saline solution.
On Day 28 after the abdominal cavity being injured, all animals were autopsied for the examination of abdominal cavity organs and the assessment of the severity and incidence of adhesions, deformation of abdominal cavity organs and distribution of different types of adhesions. The severity of adhesions was scored according to micro- and macroscopic adhesion scales [Micronized purified flavonoid fraction may prevent formation of intraperitoneal adhesions in rats//H. G. Yilmaz, I. H. Tacyildiz, C. Keles et al.//Fertil. Steril.—2005.—Vol. 84, Suppl. 2.—P 1083-1087].
The visceral peritoneum and abdominal organs involved in adhesion formation were examined histologically after fixation in FineFIX solution (Milestone), paraffin filling, staining with hematoxylin-eosin and van Gieson's staining.
as §1, with “surface of the caecum and” for “surface of caecum and”
Thirty laboratory animals were used in this study. They were divided into 2 groups: the experimental group and the control group. […]

Molecule | signs of adhesions in histological section of intestinal wall (van Gieson's staining) (Example 6, FIG. 4, 30 days after modelling) | signs of adhesions in histological section of intestinal wall (van Gieson's staining) (Example 5, FIG. 1, abdominal trauma zone and area of postoperative suture) | cases of intestinal wall adhesions (Example 5: 3 ml sterile solution 10 μg/ml injected once before celiorrhaphy, autopsy Day 28) | severity of adhesion formation (score, micro- and macroscopic adhesion scales) (Example 5: 3 ml, 10 μg/ml, once, Day 28, control scored 7, p<0.01)
Conjugates of Polyvinylimidazole and 4-(4-Fluorinephenyl)-2-(4-Methylsulphinylphenyl)-5-(4-Pyridyl)-1H-Imidazole [Example 3] | No signs of adhesions |  |  | 
C[S+]([O-])c1ccc(-c2nc(-c3ccc(F)cc3)c(-c3ccncc3)[nH]2)cc1 (stereo not shown) [SB203580, 4-(4-fluorophenyl)-2-(4-methylsulfinylphenyl)-5-(4-pyridyl)-1H-imidazole] |  | No signs of adhesions | No cases of intestinal wall adhesions | 2
